From patent publication US8440627B2, “G protein coupled receptor agonists and antagonists and methods of use” (Tufts Medical Center, Inc., priority 2004, dated 2013)
Ends that are not written are not given here.

Experiments:
human platelets = assay: Human platelet aggregation to thrombin; format: cell-based; conditions: thrombin greater than 11 nM; RWJ-56110 supplemented with PAR1-blocking antibody plus bivalirudin
[1] = test system: mice subjected to cecal ligation and puncture (CLP); assay: CLP sepsis: peripheral leukocyte count; format: in vivo; conditions: septic mice after CLP, once per day administration, blood 1-17 days
Excerpt: It has been shown that SDF-1α and CXCR4 are involved in recruiting immature neutrophils from the bone marrow. High levels of CXCR4 expression and activation lead to homing of senescent neutrophils to the bone marrow, whereas chemokines acting on the CXCR2 receptors of neutrophils, i.e., KC, Gro-α or IL-8, lead to increased neutrophil mobilization. Blood was drawn 1, 3, 5, 7 and 17 days after CLP, and leukocytes were counted. An initial decrease in leukocytes in vehicle-treated mice was observed. […] This observation would match previous reports where either blocking of CXCR4 or stimulation of CXCR2 lead to neutrophilia in the peripheral blood of mice.
(§1) The long-term effects of the chemokine pepducins on peripheral leukocyte counts were assessed in healthy untreated mice. Pepducins were injected once per day sub-Q (2.5 mg/kg day 1, 1.0 mg/kg days 2-6) and circulating leukocyte levels measured over a one week period. […] The effects of the chemokine pepducins on peripheral leukocyte count were quite similar in septic mice subjected to cecal ligation and puncture (CLP).

[2] = test system: MDA-MB-231 human breast cancer cells; assay: Chemotaxis assay (20 h, 48 blindwell microchemotaxis chamber) toward NIH3T3 conditioned media, MDA-MB-231; format: cell-based; conditions: MDA-MB-231, NIH3T3 conditioned media, FIG. 27
Description: (§2) Conditioned media was prepared from NIH3T3. Chemotaxis assays (20 h) were performed using a 48 blindwell microchemotaxis chamber (Neuroprobe) equipped with […] pore nitrocellulose filters for OVCAR-4 human ovarian cancer cells and MDA-MB-231 human breast cancer cells. Data is expressed as chemotaxis index which is the ratio between the distance of migration toward NIH3T3 conditioned media over migration toward RPMI medium alone.

[3] = test system: thioglycollate peritonitis model in mice; assay: Thioglycollate peritonitis model: leukocyte recruitment into the peritoneal cavity; format: in vivo
Description: Mice were injected with 1 mL of 3% thioglycollate i.p. Thioglycollate induces peritoneal macrophages to secret cytokines and leukocytes are then recruited into the peritoneal cavity. Pepducins were injected i.v. at the indicated doses. After 4 hours, cells were collected by peritoneal lavage, stained with Giemsa and counted under 40× magnification. N=60.
The effects of the CXCR1/2 and CXCR4 pepducins on neutrophil homeostasis under normal versus pro-inflammatory conditions in mice were evaluated. Leukocyte recruitment was first assessed in a thioglycollate peritonitis model.

[4] = test system: mice subjected to cecal ligation and puncture (CLP); assay: Cecal ligation and puncture (CLP) sepsis: survival and body weight; format: in vivo
Description: The time point selected for treatment is at the induction of non-lethal sepsis by cecal ligation and puncture (CLP). After an initial dose of 2.5 mg/kg, 1 mg/kg pepducin (or vehicle) was injected into the mice subcutaneously each day for six days. *: Four mice out of the vehicle-treated group were sacrificed after six days; #: one mouse out of the groups treated with x1/2i1LCA10 pepducin was sacrificed on day 6, and all remaining surviving mice were sacrificed at 17 days. […] In the left panel, mice were treated with x1/2pal16, x1/2i1LCA10 or vehicle (20% DMSO) at the time point of CLP. In the right panel, mice were monitored for body weight every day.
There are only few reports where treatment of sepsis is sufficient, even after the onset of systemic inflammatory response syndrome. […] The time point selected for treatment is […] the induction of non-lethal sepsis by cecal ligation and puncture (CLP). […] In the right panel, mice were monitored for their body weight every day.
CLP was performed on 6 to 8 week old female CF-1 mice. […] In the left panel, mice were monitored for body weight every day. […]
The diagnosis of sepsis is often delayed and agents cannot be readily administered in a preventative mode, therefore pepducin treatment was withheld until 8 h after the CLP procedure. […]

[5] = test system: mice subjected to cecal ligation and puncture (CLP); assay: CLP sepsis: plasma liver enzyme levels (AST, ALT); format: in vivo; conditions: for plasma levels of ALT: 24 hours after CLP
Description: Since organ failure determines the outcome of patients in SIRS, liver function was investigated. Mice were sacrificed 24 hours after CLP and plasma levels of ALT, an enzyme that increases with loss of liver function, were measured. In sham-treated mice, i.e., abdominal incision without cecal ligation and puncture, no elevation of ALT was observed.
Liver failure is a common sequalae of severe sepsis. Treatment with the CXCR1/2 pepducins right after CLP reduced liver damage as evidenced by decreases of 52-87% in liver enzyme levels (AST, ALT) whereas the CXCR4 pepducin, x4pal-i1, had no effect. When CXCR1/2 pepducin treatment was initiated 8 h after CLP, the rise in plasma AST and ALT levels were halted by the 16 h time point and then dropped to near normal levels.

healthy untreated mice = assay: Peripheral leukocyte counts in healthy mice; format: in vivo; conditions: sub-Q once per day 2.5 mg/kg day 1, 1.0 mg/kg days 2-6, one week
Description: as §1

[6] = test system: OVCAR-4 human ovarian cancer cells; assay: Chemotaxis assay (20 h, 48 blindwell microchemotaxis chamber) toward NIH3T3 conditioned media, OVCAR-4; format: cell-based; conditions: OVCAR-4, NIH3T3 conditioned media, FIG. 27
Description: as §2

CXCR4 [7] = biological target: CXCR4 (Mus musculus, UniProt P70658)
CXCR4 [8] = biological target: T1, CXCR4 (Homo sapiens, UniProt P61073)
Target sequence in this assay (P61073 whole entry): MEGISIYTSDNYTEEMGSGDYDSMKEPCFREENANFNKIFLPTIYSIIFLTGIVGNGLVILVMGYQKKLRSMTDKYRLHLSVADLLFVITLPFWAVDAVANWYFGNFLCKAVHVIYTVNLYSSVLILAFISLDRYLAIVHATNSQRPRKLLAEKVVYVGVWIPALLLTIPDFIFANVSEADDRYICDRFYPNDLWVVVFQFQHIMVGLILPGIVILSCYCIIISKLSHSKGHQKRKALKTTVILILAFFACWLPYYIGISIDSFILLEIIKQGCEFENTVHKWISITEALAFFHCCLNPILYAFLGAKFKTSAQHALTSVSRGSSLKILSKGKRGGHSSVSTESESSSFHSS

[9] = test system: mice subjected to cecal ligation and puncture (CLP); assay: CLP sepsis: bleeding time, D-dimer, platelet counts (DIC); format: in vivo
Description: Systemic inflammatory responses, the derangement of coagulation and fibrinolysis in DIC is mediated by several pro-inflammatory cytokines. Changes in bleeding time and increases in D-dimer, which is a product of excessive counter-regulatory fibrinolysis, is a hallmark of disseminated intravascular coagulation, leading to widespread deposition of fibrin in the circulation, contributing to multi organ failure and death in septic patients. […] A. Bleeding time was measured 24 h after CLP and immediate onset of treatment. […] B. D-dimer levels were measured 48 hours after CLP. As a surrogate marker of the amount of fibrin deposition, D-dimer was increased after CLP, to a higher extent in vehicle-treated mice than in CXCR2 pepducin-treated mice. C. Depicts the bleeding time of mice that were treated 8 h after CLP. D. Depicts the D-dimer levels of mice treated 8 h after CLP.
Therefore, systemic platelet activation was observed by measuring platelet counts and D-dimer levels, a marker of the increased fibrin production and subsequent fibrinolysis that occurs during DIC. […] When the CXCR1/2 pepducin treatment was delayed until 8 h after the CLP procedure, D-dimer levels were still reduced by 60-70%.

[10] = test system: mice subjected to cecal ligation and puncture (CLP); assay: CLP sepsis: BAL neutrophils and lung histology; format: in vivo
Description: Adult respiratory […] syndrome (ARDS) results from excessive neutrophil infiltration into lungs and their activation, leading to fibrin deposition. Sepsis can cause ARDS, which has a high lethality. Panels A and B: Mice were sacrificed 24 hours after CLP and BAL was performed. Neutrophils were counted after staining with Giemsa, TNF was measured by ELISA. *p<0.02 vs. vehicle treated group. C Lung histology. Mice were sacrificed 48 hours after CLP.
Blockade of CXCR1/2 signaling with pepducins reversed several criteria of established SIRS in the septic mice. First, the effect of CXCR1/2 pepducins on systemic KC levels, the mouse IL-8 ortholog was examined. In untreated mice, KC levels rose over the 16 h period after CLP and remained elevated for at least 48 h. Following administration of the CXCR1/2 pepducins at the 8 h time point, the systemic KC levels rapidly dropped and remained low thereafter. Many of the untreated CLP mice became tachypnic and hypoxemic as early as 24 h and this correlated well with mortality. During sepsis, bacterial endotoxin stimulates lung epithelia to secrete IL-8 which recruits and activates leukocytes. The resulting neutrophil margination eventually leads to lung damage. The number of neutrophils in the bronchioalveolar lavage (BAL) fluid of untreated mice increased by 100-fold as early as 4 h after CLP and then rose to 200-300 fold after 8 h. […]

CXCR4 [11] = biological target: T1, CXCR4; conditions: CXCR4 co-expressed with CXCR1 or CXCR2
Target sequence in this assay (P61073 whole entry, species assumed): as the sequence (P61073 whole entry) above

[12] = thioglycollate i.p., pepducin i.v., 4 hours

Sequence of CXCR4 (Mus musculus, UniProt P70658) (P70658 whole entry): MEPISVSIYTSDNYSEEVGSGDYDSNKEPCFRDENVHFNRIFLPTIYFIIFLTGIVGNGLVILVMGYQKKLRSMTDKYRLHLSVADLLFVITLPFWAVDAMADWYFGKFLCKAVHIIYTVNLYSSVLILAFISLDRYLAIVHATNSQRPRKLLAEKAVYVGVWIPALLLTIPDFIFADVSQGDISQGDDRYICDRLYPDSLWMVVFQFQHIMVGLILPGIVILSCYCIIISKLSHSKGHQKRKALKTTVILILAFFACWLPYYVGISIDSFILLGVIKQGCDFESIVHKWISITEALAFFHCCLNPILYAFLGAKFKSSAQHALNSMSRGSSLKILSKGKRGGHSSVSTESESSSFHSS

NCC[C@H](NC(=O)[C@H](Cc1ccc(F)c(F)c1)NC(=O)Nc1ccc2c(CN3CCCC3)cn(Cc3c(Cl)cccc3Cl)c2c1)C(=O)NCc1ccccc1 [RWJ-56110]
thrombin activation of PAR4-dependent aggregation (human platelets): regained full activation

CXCR4 i1 loop pepducin, CXCR4 antagonist; x4i1pal12 is MGYQKKLRSMTD with palmitate (SEQ ID NO 25) (also: palmitate) [x4pal-i1]
peripheral blood leukocyte levels [1]: accelerated leukocytosis on day 1 and leukopenia by day 7 | peripheral blood leukocyte levels ([1]; listed as x4i1pal12): increased immediately, but decreased 5 days after CLP to very low levels | chemotactic migration of breast cancer cells [2]: block chemotactic migration | transmigration of neutrophils into the peritoneal cavity [3, 12]: substantial increase | EC50, increase in peritoneal neutrophils ([3]; thioglycollate peritonitis): ~0.1 mg/kg | effect on survival ([4]; CLP mice): no effect on survival | plasma levels of ALT [5]: an increase in ALT | effect on liver damage, liver enzyme levels (AST, ALT) ([5]; treatment right after CLP): no effect | peripheral leukocyte count (healthy untreated mice): caused a leukocytosis | chemotactic migration of ovarian cancer cells [6]: block chemotactic migration

CXCR1/CXCR2 i1 loop pepducin, sequence YSRVGRSVTD, lithocholate lipid modification (SEQ ID NO 20, 23) (also: lithocholate lipid modification) [x1/2i1LCA10]
migration of leukocytes towards SDF-1α (CXCR4 [7]): does not inhibit migration | peripheral blood leukocyte levels [1]: remained in the normal range | peripheral blood leukocyte levels ([1]; listed as x1/2LCA-i1): within the normal range | migration of leukocytes towards SDF-1α (CXCR4 [8]): does not inhibit migration | bleeding time ([9]; 24 h after CLP, immediate onset of treatment): normal bleeding times | D-dimer levels ([9]; 48 hours after CLP): significant reductions | IC50, inhibition of transmigration of neutrophils into the peritoneal cavity [3, 12]: 0.15 mg/kg | transmigration of neutrophils into the peritoneal cavity [3, 12]: completely inhibited | sepsis-induced mortality ([4]; pepducin immediately after CLP, 2.5 mg/kg then 1 mg/kg until day 6): highly significant decrease | lung fibrin deposition (histology) ([10]; lungs harvested at 48 h after CLP): significant protection against fibrin deposition | neutrophils in bronchioalveolar lavage (BAL) fluid ([10]; treatment at 8 h after CLP): rapid drop | plasma levels of ALT [5]: an increase was observed but it was significantly less compared to vehicle treated mice | peripheral leukocyte count (healthy untreated mice): neither x1/2pal-i3 nor x1/2LCA-i1 altered the leukocyte count | inhibition of CXCR4 (CXCR4 [11]): does not inhibit CXCR4

x1/2pal-i1: I1-loop pepducin based on CXCR1/2; x1/2i1pal12 is ILYSRVGRSVTD with palmitate (SEQ ID NO 18, 21) (also: palmitate)
chemotactic migration of breast cancer cells [2]: block chemotactic migration | chemotactic migration of ovarian cancer cells [6]: block chemotactic migration
